# Experimental data reported in US20110071150A1 (priority 2009, published 2011).
# System: Jurkat IL-2 Production
# Assay: Jurkat IL-2 Production Assay
# Type: cell-based
# Conditions: Homo sapiens, Jurkat cell (ATCC), 18-20 h incubation, PHA 5 μg/mL with 1% FBS, or PMA/Ionomycin with 30% FBS (table does not say which)
# Summary of the method: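 Jurkat cells were exposed to compound (0.25% DMSO final) for 10 min, then stimulated for 18–20 h at 37 °C. The 1% FBS condition used 5 μg/mL PHA; the high-serum condition (30% FBS) used 50 ng/mL PMA plus 500 ng/mL ionomycin. IC50 was derived from IL-2 production.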
row,SMILES,IC50 [nM]
1,"CCc1sc(-c2cccnc2)nc1-c1ccc2[nH]c(-c3c(F)cccc3F)cc2c1 [Example 207, 2-(2,6-Difluoro-phenyl)-5-(5-ethyl-2-pyridin-3-yl-thiazol-4-yl)-1H-indole]",26
2,"Cc1sc(-c2ccccn2)nc1-c1ccc2[nH]c(-c3c(Cl)cccc3Cl)cc2c1 [Example 217, 2-(2,6-Dichloro-phenyl)-5-(5-methyl-2-pyridin-2-yl-thiazol-4-yl)-1H-indole]",100
3,"Cc1cccc(C)c1-c1cc2cc(-c3nc(-c4cccnc4)sc3C)ccc2[nH]1 [Example 218, 2-(2,6-Dimethyl-phenyl)-5-(5-methyl-2-pyridin-3-yl-thiazol-4-yl)-1H-indole]",110
4,"Cc1cccc(C)c1-c1cc2cc(-c3nc(-c4ccccn4)sc3C)ccc2[nH]1 [Example 219, 2-(2,6-Dimethyl-phenyl)-5-(5-methyl-2-pyridin-2-yl-thiazol-4-yl)-1H-indole]",158
5,"Cc1cccc(F)c1-c1cc2cc(-c3nc(-c4cccnc4)sc3C)ccc2[nH]1 [Example 220, 2-(2-Fluoro-6-methyl-phenyl)-5-(5-methyl-2-pyridin-3-yl-thiazol-4-yl)-1H-indole]",24
6,Cn1nc(C(F)(F)F)cc1-c1ccc2[nH]c(C3CCCCC3)cc2c1 [Example 222],40
7,"Cc1cc(S(=O)(=O)N(C)C)ccc1-c1ccc2[nH]c(C3CCCCC3)cc2c1 [Example 223, 4-(2-cyclohexyl-1H-indol-5-yl)-N,N,3-trimethylbenzenesulfonamide]",54
8,"COc1cc(C)c(-c2ccc3[nH]c(C4CCCCC4)cc3c2)cn1 [Example 224, 2-cyclohexyl-5-(6-methoxy-4-methylpyridin-3-yl)-1H-indole]",83
9,"Cc1cc(S(=O)(=O)N(C)C)ccc1-c1ccc2[nH]c(-c3ccccc3F)c(C)c2c1 [Example 225, 4-(2-(2-fluorophenyl)-3-methyl-1H-indol-5-yl)-N,N,3-trimethylbenzenesulfonamide]",153
10,"Cc1cc(S(=O)(=O)N(C)C)ccc1-c1ccc2[nH]c(-c3ccccc3)c(C)c2c1 [Example 226, N,N,3-trimethyl-4-(3-methyl-2-phenyl-1H-indol-5-yl)benzenesulfonamide]",602
11,Cc1c(-c2c(F)cccc2F)[nH]c2ccc(-c3cc(C(F)(F)F)nn3C)cc12 [Example 227],284
12,"Cc1cc(S(=O)(=O)N(C)C)ccc1-c1ccc2[nH]c(-c3c(F)cccc3F)c(C)c2c1 [Example 228, 4-[2-(2,6-Difluoro-phenyl)-3-methyl-1H-indol-5-yl]-3,N,N-trimethyl-benzenesulfonamide]",115
13,"COc1cc(C)c(-c2ccc3[nH]c(-c4c(F)cccc4F)c(C)c3c2)cn1 [Example 229, 2-(2,6-Difluoro-phenyl)-5-(6-methoxy-4-methyl-pyridin-3-yl)-3-methyl-1H-indole]",164

# Continued, values first:
row,IC50 [nM],SMILES
1,31,"CCn1nc(C(F)(F)F)cc1-c1ccc2[nH]c(-c3c(F)cc(OC)cc3Cl)cc2c1 [Example 203, 2-(2-chloro-6-fluoro-4-methoxyphenyl)-5-(1-ethyl-3-(trifluoromethyl)-1H-pyrazol-5-yl)-1H-indole]"
2,63,"CCn1nc(-c2cnccn2)cc1-c1ccc2[nH]c(-c3c(F)cccc3F)cc2c1 [Example 204, 2-(2,6-difluorophenyl)-5-(1-ethyl-3-(pyrazin-2-yl)-1H-pyrazol-5-yl)-1H-indole]"
3,24,"CCn1nc(-c2cccnc2)nc1-c1ccc2[nH]c(-c3c(F)cccc3F)cc2c1 [Example 205, 2-(2,6-Difluoro-phenyl)-5-(2-ethyl-5-pyridin-3-yl-2H-[1,2,4]triazol-3-yl)-1H-indole]"
4,51,"Cc1sc(-c2cnccn2)nc1-c1ccc2[nH]c(-c3c(F)cccc3F)cc2c1 [Example 206, 2-(2,6-Difluoro-phenyl)-5-(5-methyl-2-pyrazin-2-yl-thiazol-4-yl)-1H-indole]"
5,97,"Cc1cc(-c2ncco2)ncc1-c1ccc2[nH]c(-c3c(F)cccc3F)cc2c1 [Example 208, 2-(2,6-Difluoro-phenyl)-5-(4-methyl-6-oxazol-2-yl-pyridin-3-yl)-1H-indole]"
6,54,"Cc1cc(-c2cnc(N)nc2)ncc1-c1ccc2[nH]c(-c3c(F)cccc3F)cc2c1 [Example 209, 5-{5-[2-(2,6-Difluoro-phenyl)-1H-indol-5-yl]-4-methyl-pyridin-2-yl}-pyrimidin-2-ylamine]"
7,60,"Cc1cc(-c2cncnc2)ncc1-c1ccc2[nH]c(-c3c(F)cccc3F)cc2c1 [Example 210, 2-(2,6-Difluoro-phenyl)-5-(4-methyl-6-pyrimidin-5-yl-pyridin-3-yl)-1H-indole]"
8,124,"CCn1nc(-c2cnccn2)cc1-c1ccc2[nH]c(-c3cnccc3C)cc2c1 [Example 211, 5-(2-Ethyl-5-pyrazin-2-yl-2H-pyrazo-1-3-yl)-2-(4-methyl-pyridin-3-yl)-1H-indole]"
9,447,"Cc1cc(C#N)ncc1-c1ccc2[nH]c(-c3cnccc3C)cc2c1 [Example 212, 4-Methyl-5-[2-(4-methyl-pyridin-3-yl)-1H-indol-5-yl]-pyridine-2-carbonitrile]"
10,105,COc1cc(C#N)ccc1-c1ccc2[nH]c(-c3cnccc3C)cc2c1 [Example 213]
11,41,"Cc1cc(S(C)(=O)=O)ncc1-c1ccc2[nH]c(-c3cnccc3C)cc2c1 [Example 214, 5-(6-Methanesulfonyl-4-methyl-pyridin-3-yl)-2-(4-methyl-pyridin-3-yl)1indole]"
12,235,"Cc1cc(Cl)ncc1-c1ccc2[nH]c(-c3cnccc3C)cc2c1 [Example 215, 5-(6-Chloro-4-methyl-pyridin-3-yl)-2-(4-methyl-pyridin-3-yl)-1H-indole]"
13,110,"COc1cc(C)c(-c2ccc3[nH]c(-c4cnccc4C)cc3c2)cn1 [Example 216, 5-(6-Methoxy-4-methyl-pyridin-3-yl)-2-(4-methyl-pyridin-3-yl)-1H-indole]"
14,95,"Cc1cccc(F)c1-c1cc2cc(-c3nc(-c4ccccn4)sc3C)ccc2[nH]1 [Example 221, 2-(2-Fluoro-6-methyl-phenyl)-5-(5-methyl-2-pyridin-2-yl-thiazol-4-yl)-1H-indole]"
